“Also recorded” adds a separate entry of the source.
Assays:
[1] = tested on: draining lymph node cells; experiment: Tolerance experiments with 89-101 and 87-96: lymph node cell recall proliferation; type: in vivo, Mice
Description: In order to test this possibility tolerance experiments are performed with the 89-101 and 87-96 peptides (FIGS. 15a and b).
Mice received 200 μg of peptide in PBS or PBS alone intraperitoneally on days −8, −6 and −4 prior to 100 μg of peptide in complete Freunds adjuvant on day 0. After 10 days, draining lymph node cells (6×10^5 per well) were cultured in X-Vivo 15 medium supplemented with 5×10^−5M 2-mercaptoethanol and […] L-glutamine with or without antigen for 72 hours. Cultures were pulsed for the final 16 hours with 0.5 μCi ^3H.thymidine and incorporation measured using a liquid scintillation counter. Results are expressed as means counts per minute for triplicate cultures.

[2] = tested on: MBP-specific T cell clones; experiment: T cell clone (TCC) proliferation assay, fine mapping of MBP epitopes; type: cell-based, human; conditions: TCC from MS patients and healthy individuals; proliferative response
Description: MBP-specific T cell lines (TCL) are generated from 8 MS patients and 2 healthy control donors. PBMC from each subject are separated as described above and plated out at 1×10^6 cells/ml in 6-well plates in the presence of MBP (50 μg/ml); a portion of PBMC from each subject is regularly frozen and stored for subsequent restimulations. Seven days later the cells are fed with fresh medium containing 2% IL-2 (Lymphocult-HT; Biotest LTD., Birmingham, UK), and on day 12 of culture all cells are restimulated with antigen, IL-2 and irradiated (2500 Rad) autologous PBMC as a source of antigen presenting cells (APC), at a cell ratio of 1T cell:5 APC. Cells are expanded in IL-2 every 3-4 days, and on day 14 are restimulated with antigen, IL-2 and PBMC, as described above. On the day of the first restimulation cells are examined for specific proliferation to MBP. Briefly, 2×10^4 T cells and 1×10^5 irradiated autologous PBMC are cultured in triplicate, in 96-well round-bottom plates, in the presence of MBP. Cells are cultured for 2 days and pulsed with (^3H)-Thymidine at 0.4 μCi/well during the last 18 hours of the culture. Cells are then harvested as described above, and a TCL is considered to be MBP-specific with a δcpm>1000 and a SI>3.
Following 3 restimulation/expansion cycles TCL are cloned using PHA (Sigma, Poole, Dorset, UK)) in the presence of autologous irradiated PBMC as APC. T cells are plated under limiting dilution conditions at 0.1 cell/well, 0.3 cell/well and 1 cell/well and cultured in Terasaki plates (Nunc International, Costar) with 1×10^4 irradiated PBMC, 5 μg/ml PHA, and 2% IL-2. After 10-12 days, growth-positive wells are expanded onto 96-well round-bottom plates, using 1×10^5 irradiated PBMC, 5 μg/ml PHA and IL-2. Three days later wells are fed with fresh medium containing IL-2, and on day 7 the clones are expanded onto 48-well plates using 5×10^5 irradiated PBMC, PHA and IL-2; at this point clones are tested in proliferation assays for specific responses to MBP. MBP-specific clones are expanded a week later onto 24-well plates, using 1×10^6 irradiated PBMC with PHA or Dynabeads (Dynal, UK) and IL-2. The clones are maintained in 24-well plates using a 7-10 day restimulation/expansion cycle, essentially as described above. The ability of T cell clones (TCC) to recognize the panel of MBP peptides is tested by proliferation assays, as described above.
TCC are generated from 8 MS patients and 2 healthy individuals, and used to clarify the fine specificity of the peptide regions identified in the kinetic response assay. The specificity of each TCC is tested by its proliferative response to the panel of 15-mer peptides. Clone SD:A7 recognised region 1-24, and within this region this TCC responded to a.a. 5-19. Region 30-54 is recognised by 4 clones (MS49:D3, MS49:C8, MS49:A8, MS49:B6) and the epitope within this region is 30-44. […] Five clones (MS43:A7, MS41:B6, MS41:A2, MS41:C6, N5:8) recognize a.a. 83-99 which is contained in region 75-99. One patient produced TCC specific for a.a. 110-124 (MS60:A2, MS60:B3), contained within the 105-129 pool, and another TCC from the same patient is specific to 130-144 (MS60:E1), found within the 120-144 region. Five individuals produce clones which recognize epitopes within the region 135-159: MS60:F7, MS60:D1, MS59:F1 and N5:19 recognizes a.a. 140-154; MS57:A1 is specific to 140-149, and TCC MS17:A3 responds to sequence 130-144. […] Lastly, region 150-170 is recognized by 2 clones specific to a.a. 156-169.

HLA-DQ6 = experiment: Antigen presentation assay, HLA-DQ6 transfected L-cells; type: cell-based, human
Source text: MBP peptides 30-44, 130-144 and 139-153 were synthesized using L-amino acids and standard F-moc chemistry on an Abimed AMS 422 multiple peptide synthesiser.
L-cells transfected with either HLA-DQ6, HLA-DR2a or HLA-DR2b, or Mgar cells (EACC, Porton Down, UK) which express HLA-DQ, DP and DR were used as APCs.
T-cell clones MS 49:D3 and MS17:A2 were generated from MS patients and clone N5:19 was generated from a normal individual. All three clones were DR2 positive.
Antigen presenting cells were incubated with the various concentrations of peptide and the appropriate T-cells. Proliferation, and therefore activation, of the T-cells was measured by [^3H]-Thymidine incorporation, and expressed as the stimulation index (SI=corrected counts per minute (ccpm) culture containing peptide/ccpm culture without peptide).

[3] = tested on: fixed Mgar (HLA-DR2+ve) APC presenting to T cell clones; experiment: Antigen-presentation assay using an APIPS (fixed APC) with human T cell clones; type: cell-based; conditions: for presentation by fixed APC without further processing (apitope): fixed vs live APC, T cell clone proliferation; for apitope within MBP region 125-148: live or p-formaldehyde-fixed Mgar cells, T cell clone MS17:A3, 48 h
Description: Presentation of the peptides to T cell clones is measured by proliferation. APC are fixed in 0.5% paraformaldehyde and plated at 1×10^5 cells per well of a 96-well tissue culture plate. T cells clones are plated at 2×10^4 cells per well in the presence of varying concentrations of peptide. After incubation for 48 h at 37° C., proliferation is measured by [^3H] thymidine incorporation over 16-20 h. Results are compared with the ability of T cells to respond to the epitope presented by live APC.
In order to investigate whether various MBP peptides are apitopes, their capacity to be presented to T-cells by fixed APC is investigated. Live or […] Mgar (HLA-DR2+ve) cells are pre-pulsed with the peptide in serum, or serum alone for 3.5 hours. Excess peptide is then removed from cells and the appropriate T cell clone added. The T cell proliferative response is measured by ^3H-thymidine uptake.
(§1) For any given epitope, there may exist one or more apitopes, capable of being presented to APC without further processing. The presence of apitopes within two regions of MBP is investigated by incubating live or p-formaldehyde-fixed Mgar (HLA-DR2+ve) cells are incubated with overlapping peptides in serum from MBP regions 77-100 (FIG. 12) and 125-148 (FIG. 13) or in serum alone. T cells were added and after 72 h (FIG. 12) or after 48 h (FIG. 13) the T cell proliferative response was measured by ^3H-thymidine uptake. For MBP 77-100, the T cells are isolated from a DR2:MBP 82-100 transgenic mouse, whereas for MBP 130-144 the T cell clone MS17:A3 is used.

[4] = tested on: fixed Mgar (HLA-DR2+ve) APC presenting to T cells from DR2:MBP 82-100 transgenic mouse; experiment: Antigen-presentation assay using an APIPS (fixed APC) with T cells from DR2:MBP82-100 transgenic mouse; type: cell-based; conditions: live or p-formaldehyde-fixed Mgar cells, 72 h
Description: Presentation of peptides to T cells isolated from DR2:MBP82-100 transgenic mouse was essentially as described above except APC were plated at 5×10^5 cells per well, T cells were plated at 1×10^5 cells per well, and incubation was allowed to proceed for 72 h prior to the addition of [^3H]-thymidine.
as §1

[5] = tested on: MHC class I or II molecule; conditions: cited from earlier work

For “MBP 87-96: MBP 10-mer peptide 87-96, contains the epitope 89-94 (SRPHLIRLFS; UniProt P02686 87-96, looked up, fragment)”, the “effect of peptide as tolerogen on recall responses after priming with 87-96” value ([1]; 200 μg i.p. days -8, -6, -4, priming 87-96 in CFA day 0, lymph node cells day 10) was “suppressed recall responses to both 87-96 and 89-101” and the “in vitro recall response after priming with 87-96” value ([1]; PBS pre-treated mice, lymph node cells) was “strong recall response”.

In the case of “H-Pro-Arg-His-Arg-Asp-Thr-Gly-Ile-Leu-Asp-Ser-Ile-Gly-Arg-Phe-NH2 (H-PRHRDTGILDSIGRF-NH2) [MBP 30-44]”, the “T cell clones (TCC) recognising the peptide” value (“T cell clones” below) [2] is reported as 4, the HLA-DQ6 binding (HLA-DQ6) is reported as “HLA-DQ6 binding” and the “proliferative response versus Mgar control cells” value (HLA-DQ6; T-cell clone MS 49:D3, highest peptide concentration) is reported as 1.5 fold. For the same substance, the “presentation by fixed APC without further processing (apitope)” value [3] was “shown to act as apitopes; also recorded: found to be apitopes; also recorded: can be presented by fixed APC without further processing”.

For ENPVVHFFKNIVTPR [MBP 83-97], the “apitope within MBP region 77-100” value [4] was “shown to act as apitopes”.

In the case of QDENPVVHFFKNIVT [MBP 81-95], the “apitope within MBP region 77-100” value [4] is reported as “shown to act as apitopes”.

In the case of “MBP 134-148: MBP peptide identified as apitope in WO 03/064464 (MASQKRPSQRHGSKY; UniProt P02686 134-148, looked up, fragment)”, the “identified as apitope in WO 03/064464” value [5] is given as “apitopes”.

With MPVVHFFKNIVTPRT [MBP 84-98] the “apitope within MBP region 77-100” value [4] was “shown to act as apitopes”.

In the case of RASDYKSAHKGFKGV [MBP 130-144], the “T cell clones” value [2] is reported as “responds” and the “presentation by fixed APC without further processing (apitope)” value [3] is reported as “shown to act as apitopes; also recorded: found to be apitopes; also recorded: can be presented by fixed APC without further processing”.

With TQDENPVVHFFKNIV [MBP 80-94] the “apitope within MBP region 77-100” value [4] was “shown to act as apitopes” and the “presentation by fixed APC without further processing (apitope)” value [3] was “found to be apitopes”.

In the case of “MBP 138-152: MBP peptide identified as apitope in WO 03/064464 (KRPSQRHGSKYLATA; UniProt P02686 138-152, looked up, fragment)”, the “identified as apitope in WO 03/064464” value [5] is listed as “apitopes”.

For “MBP 135-149: MBP peptide identified as apitope in WO 03/064464 (ASQKRPSQRHGSKYL; UniProt P02686 135-149, looked up, fragment)”, the “identified as apitope in WO 03/064464” value [5] is listed as “apitopes”.

With “MBP 156-170: myelin basic protein peptide, residues 156-170; epitope but not apitope (DHARHGFLPRHRDTG)” the “presentation by fixed APC without further processing (apitope)” value [3] was “an epitope but not an apitope; also recorded: requires further processing for presentation to T cells”.

For “MBP 136-150: MBP peptide identified as apitope in WO 03/064464 (SQKRPSQRHGSKYLA; UniProt P02686 136-150, looked up, fragment)”, the “identified as apitope in WO 03/064464” value [5] is listed as “apitopes”.

In the case of “MBP 5-19: MBP 15-mer peptide a.a. 5-19 (AGKRELNAEKASTNS; UniProt P02686 5-19, looked up, fragment)”, the “T cell clones” value [2] is reported as “responded”.

In the case of “MBP 137-151: MBP peptide identified as apitope in WO 03/064464 (QKRPSQRHGSKYLAT; UniProt P02686 137-151, looked up, fragment)”, the “identified as apitope in WO 03/064464” value [5] is given as “apitopes”.

With “H-Ala-Ser-Asp-Tyr-Lys-Ser-Ala-His-Lys-Gly-Phe-Lys-Gly-Val-Asp-NH2 (H-ASDYKSAHKGFKGVD-NH2) [MBP 131-145]” the HLA-DQ6 binding (HLA-DQ6) was “HLA-DQ6 binding” and the “apitope within MBP region 125-148” value [3] was “shown to act as apitopes”.

In the case of DYKSAHKGFKGVDAQ [MBP 133-147], the “apitope within MBP region 125-148” value [3] is reported as “shown to act as apitopes”.

In the case of “MBP 140-149: MBP 10-mer peptide 140-149 (PSQRHGSKYL; UniProt P02686 140-149, looked up, fragment)”, the “T cell clones” value [2] is reported as “specific”.

For “MBP 110-124: myelin basic protein peptide, residues 110-124 (RPSESDELQTIQEDS)”, the “T cell clones” value [2] was “TCC specific” and the “presentation by fixed APC without further processing (apitope)” value [3] was “shown to act as apitopes; also recorded: found to be apitopes; also recorded: can be presented by fixed APC without further processing”.

In the case of DENPVVHFFKNIVTP [MBP 82-96], the “apitope within MBP region 77-100” value [4] is reported as “shown to act as apitopes”.

With “MBP 156-169: MBP a.a. 156-169 recognised by 2 clones; possibly the same as 156-170 (DHARHGFLPRHRDT; UniProt P02686 156-169, looked up, fragment)” the “T cell clones” value [2] was 2.

In the case of SDYKSAHKGFKGVDA [MBP 132-146], the “apitope within MBP region 125-148” value [3] is reported as “shown to act as apitopes”.

In the case of “MBP 60-74: MBP 15-mer peptide 60-74 (QDTAVTDSKRTADPK; UniProt P02686 60-74, looked up, fragment)”, the “T cell clones” value [2] is reported as “One”.
